From paper PMC3322284 (Journal of Pharmacological and Toxicological Methods, 2012)
Read-outs that look alike come from different tables or passages of the source. Non-standard residues stand in square brackets, D forms with d. Residues, ends and D or L forms follow the SMILES beside them. *: point of attachment. Sta = CC(C)C[C@H](N)[C@@H](O)CC(=O)O; Isovaleryl = CC(C)CC(=O)*

What was measured:
[1] = humans; ref Fenner et al., 2009; cited from earlier work
hamster Abcb1a Pgp [2] = target: T1, hamster Abcb1a Pgp (Cricetulus griseus, UniProt P21448); assay: Fluorosome-trans-pgp
T1 sequence (P21448 whole entry): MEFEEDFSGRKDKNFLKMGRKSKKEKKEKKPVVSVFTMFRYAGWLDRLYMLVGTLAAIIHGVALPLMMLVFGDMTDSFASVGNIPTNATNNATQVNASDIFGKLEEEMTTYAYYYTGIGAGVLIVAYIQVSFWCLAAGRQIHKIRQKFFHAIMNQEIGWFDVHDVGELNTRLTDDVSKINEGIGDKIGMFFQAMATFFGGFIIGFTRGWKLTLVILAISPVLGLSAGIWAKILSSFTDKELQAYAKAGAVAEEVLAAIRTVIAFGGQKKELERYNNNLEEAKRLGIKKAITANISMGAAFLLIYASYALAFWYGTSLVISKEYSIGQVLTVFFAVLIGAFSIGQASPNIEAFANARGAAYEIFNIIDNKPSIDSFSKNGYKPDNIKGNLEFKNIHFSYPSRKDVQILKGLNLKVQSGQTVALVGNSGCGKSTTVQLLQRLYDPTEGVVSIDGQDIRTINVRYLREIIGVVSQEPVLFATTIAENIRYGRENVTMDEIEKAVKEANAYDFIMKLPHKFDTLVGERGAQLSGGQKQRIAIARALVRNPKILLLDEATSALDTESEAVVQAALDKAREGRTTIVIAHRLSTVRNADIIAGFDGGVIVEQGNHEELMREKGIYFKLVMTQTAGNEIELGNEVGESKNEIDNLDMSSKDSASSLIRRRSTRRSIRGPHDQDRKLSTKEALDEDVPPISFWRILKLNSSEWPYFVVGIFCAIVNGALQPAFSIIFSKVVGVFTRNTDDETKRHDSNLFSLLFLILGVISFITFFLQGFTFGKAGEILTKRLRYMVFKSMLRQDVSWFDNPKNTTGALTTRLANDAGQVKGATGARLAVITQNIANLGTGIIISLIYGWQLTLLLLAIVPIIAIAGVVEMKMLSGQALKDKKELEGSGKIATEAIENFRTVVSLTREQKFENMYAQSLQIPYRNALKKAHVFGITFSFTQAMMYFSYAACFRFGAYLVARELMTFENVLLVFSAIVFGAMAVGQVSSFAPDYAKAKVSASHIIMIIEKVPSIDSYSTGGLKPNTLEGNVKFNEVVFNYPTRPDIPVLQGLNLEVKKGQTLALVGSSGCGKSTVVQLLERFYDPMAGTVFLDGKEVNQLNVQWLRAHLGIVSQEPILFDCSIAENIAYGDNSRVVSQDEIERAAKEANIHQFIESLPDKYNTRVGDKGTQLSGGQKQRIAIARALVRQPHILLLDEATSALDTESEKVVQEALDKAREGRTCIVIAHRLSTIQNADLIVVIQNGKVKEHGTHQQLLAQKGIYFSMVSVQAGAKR

hamster Abcb1a Pgp [3] = target: T1, hamster Abcb1a Pgp; assay: biochemical; format: binding
human MDR1 Pgp = human MDR1 Pgp (Homo sapiens, UniProt P08183); assay: Inhibition of net [3H]digoxin transport in LLC-MDR1 cell monolayers; format: cell-based
human MDR1 Pgp, sequence (P08183 whole entry): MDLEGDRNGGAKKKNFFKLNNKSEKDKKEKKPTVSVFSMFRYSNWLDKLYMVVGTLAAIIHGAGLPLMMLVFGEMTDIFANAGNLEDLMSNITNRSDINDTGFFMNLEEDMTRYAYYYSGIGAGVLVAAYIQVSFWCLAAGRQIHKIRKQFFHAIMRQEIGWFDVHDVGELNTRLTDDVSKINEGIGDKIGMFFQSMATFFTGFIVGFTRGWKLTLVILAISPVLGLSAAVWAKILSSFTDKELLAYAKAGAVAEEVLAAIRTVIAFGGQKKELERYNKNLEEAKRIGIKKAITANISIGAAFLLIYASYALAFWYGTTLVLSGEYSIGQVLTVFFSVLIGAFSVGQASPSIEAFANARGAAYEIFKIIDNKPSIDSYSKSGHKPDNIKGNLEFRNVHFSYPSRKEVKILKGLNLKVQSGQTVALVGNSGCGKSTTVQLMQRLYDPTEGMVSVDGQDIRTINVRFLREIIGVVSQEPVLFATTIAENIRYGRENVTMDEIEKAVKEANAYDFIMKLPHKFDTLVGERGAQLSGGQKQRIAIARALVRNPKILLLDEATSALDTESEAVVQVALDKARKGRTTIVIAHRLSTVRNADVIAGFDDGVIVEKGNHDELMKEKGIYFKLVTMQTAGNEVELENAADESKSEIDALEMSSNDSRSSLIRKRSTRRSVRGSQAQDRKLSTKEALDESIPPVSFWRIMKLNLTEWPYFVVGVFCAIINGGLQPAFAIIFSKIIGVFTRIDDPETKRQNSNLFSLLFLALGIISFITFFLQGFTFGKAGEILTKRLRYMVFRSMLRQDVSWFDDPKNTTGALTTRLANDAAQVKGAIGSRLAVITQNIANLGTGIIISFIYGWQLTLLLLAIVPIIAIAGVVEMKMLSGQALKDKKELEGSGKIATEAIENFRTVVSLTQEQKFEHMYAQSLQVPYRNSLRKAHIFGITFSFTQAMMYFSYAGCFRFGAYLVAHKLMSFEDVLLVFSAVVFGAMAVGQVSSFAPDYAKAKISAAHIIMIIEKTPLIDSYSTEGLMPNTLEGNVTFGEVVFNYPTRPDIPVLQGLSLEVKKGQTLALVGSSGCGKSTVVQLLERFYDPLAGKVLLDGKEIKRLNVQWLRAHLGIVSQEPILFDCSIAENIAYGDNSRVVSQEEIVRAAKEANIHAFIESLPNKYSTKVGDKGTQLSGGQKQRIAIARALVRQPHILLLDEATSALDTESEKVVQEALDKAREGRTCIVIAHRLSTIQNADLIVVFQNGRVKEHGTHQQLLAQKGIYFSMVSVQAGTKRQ

[4] = IC50,Fl, Table 2, half-maximal concentration for inhibition of transport in Fl-t-pgp
[5] = IC50 Fl-t-pgp, inhibition of S-HR transport, 2 mM ATP, 23°C
[6] = read-out: IC50 Fl-t-pgp, inhibition of S-HR transport, 2 mM ATP, 23°C

IC50 (hamster Abcb1a Pgp [2]; [4]) | IC50 (hamster Abcb1a Pgp [2]; [5]) | Structure (SMILES) | [I2] estimated gastrointestinal concentration of drug after oral dose [1] | [I] peak plasma concentration of drug at steady state [1] | also measured
0.93 µM | 0.93 µM | COC(=O)C1=C(C)NC(C)=C(C(=O)OCCN(C)Cc2ccccc2)C1c1cccc([N+](=O)[O-])c1 (centres unmarked) [Nicardipine] | 248 µM | 0.18 µM | Kd (hamster Abcb1a Pgp [3]): 6.5 µM
3.8 µM | 3.8 µM | COc1ccccc1OCCNCC(O)COc1cccc2[nH]c3ccccc3c12 (centres unmarked) [Carvedilol] | 61.5 µM | 0.13 µM | IC50 (human MDR1 Pgp): 32 µM
– | 0.1 µM | COc1cc2c(cc1OC)CN(CCc1ccc(NC(=O)c3cccc4c(=O)c5cccc(OC)c5[nH]c34)cc1)CC2 [Elacridar] | – | – | Kd (hamster Abcb1a Pgp [3]): 0.59 µM
7.1 µM | 7.1 µM | COCC(=O)O[C@]1(CCN(C)CCCc2nc3ccccc3[nH]2)CCc2cc(F)ccc2[C@@H]1C(C)C [Mibefradil] | 1211 µM | 2.42 µM | –
– | 0.31 µM | COC(=O)[C@H]1[C@H]2C[C@@H]3c4[nH]c5cc(OC)ccc5c4CCN3C[C@H]2C[C@@H](OC(=O)c2cc(OC)c(OC)c(OC)c2)[C@@H]1OC [Reserpine] | – | – | Kd (hamster Abcb1a Pgp [3]): 0.73 µM
24.2 µM | 24 µM | COc1ccc([C@@H]2Sc3ccccc3N(CCN(C)C)C(=O)[C@@H]2OC(C)=O)cc1 [Diltiazem] | – | – | –
64.1 µM | 64 µM | COc1ccccc1OCC(O)CN1CCN(CC(=O)Nc2c(C)cccc2C)CC1 (centres unmarked) [Ranolazine] | 9356 µM | 8.4 µM | IC50 (human MDR1 Pgp): 130 µM
0.12 µM | 0.12 µM | CCCc1nc2c(C)cc(-c3nc4ccccc4n3C)cc2n1Cc1ccc(-c2ccccc2C(=O)O)cc1 [Telmisartan] | 933 µM | 1.11 µM | IC50 (human MDR1 Pgp): 17 µM

The next lines start with the compound.

Structure (SMILES) | IC50 (hamster Abcb1a Pgp [2]; [4]) | IC50 (hamster Abcb1a Pgp [2]; [5]) | [I2] estimated gastrointestinal concentration of drug after oral dose [1] | [I] peak plasma concentration of drug at steady state [1] | also measured
CCOC(=O)C1=C(C)NC(C)=C(C(=O)OC)C1c1cccc([N+](=O)[O-])c1 (centres unmarked) [Nitrendipine] | 5.8 µM | 5.8 µM | 222.0 µM | 0.03 µM | –
CC(=O)O[C@H]1C(=O)[C@@]2(C)[C@H]([C@H](OC(=O)c3ccccc3)[C@]3(O)C[C@H](OC(=O)[C@H](O)[C@@H](NC(=O)c4ccccc4)c4ccccc4)C(C)=C1C3(C)C)[C@]1(OC(C)=O)CO[C@@H]1C[C@@H]2O [Paclitaxel] | – | 1.2 µM | – | – | Kd (hamster Abcb1a Pgp [3]): 0.038 µM
Cc1c(C)c2c(c(C)c1O)CCC(C)(COc1ccc(CC3SC(=O)NC3=O)cc1)O2 (centres unmarked) [Troglitazone] | 5.2 µM | 5.2 µM | 3264 µM | 3.62 µM | IC50 (human MDR1 Pgp): 12 µM
CN[C@H]1CC[C@@H](c2ccc(Cl)c(Cl)c2)c2ccccc21 [Sertraline] | 29 µM | 29 µM | 2612 µM | 0.39 µM | –
C=CCN1CC[C@]23c4c5ccc(O)c4O[C@H]2C(=O)CC[C@@]3(O)[C@H]1C5 [Naloxone] | – | – | – | – | IC50 (hamster Abcb1a Pgp [2]): 210 µM
CCCCc1oc2ccccc2c1C(=O)c1cc(I)c(OCCN(CC)CC)c(I)c1 [Amiodarone] | – | – | 4693 µM | – | –
C[C@H](CS)C(=O)N1CCC[C@H]1C(=O)O [Captopril] | – | – | 230 µM | 0.23 µM | IC50 (human MDR1 Pgp): > 1000 µM
C[C@]12CC[C@H](O)C[C@H]1CC[C@@H]1[C@@H]2C[C@@H](O)[C@]2(C)[C@@H](C3=CC(=O)OC3)CC[C@]12O [Digoxigenin] | – | – | – | – | IC50 (hamster Abcb1a Pgp [2]): 520 µM
CC(=O)NC(CC(C)C)C(=O)NC(CC(C)C)C(=O)NC(Cc1ccc(O)cc1)C(N)=O (stereo not drawn) [NAc-LLY-amide] (Ac-Leu-Leu-Tyr-NH2; configuration not given here) | – | – | – | – | IC50 (hamster Abcb1a Pgp [2]; [6]): 13 µM
CC(C)CC(=O)N[C@H](C(=O)N[C@H](C(=O)N[C@@H](CC(C)C)[C@@H](O)CC(=O)N[C@@H](C)C(=O)N[C@@H](CC(C)C)[C@@H](O)CC(=O)O)C(C)C)C(C)C [Pepstatin A] (Isovaleryl-VV[Sta]A[Sta]-OH) | – | 29 µM | – | – | –
Cc1c(O)cccc1C(=O)N[C@@H](CSc1ccccc1)[C@H](O)CN1C[C@H]2CCCC[C@H]2C[C@H]1C(=O)NC(C)(C)C [Nelfinavir] | – | 0.59 µM | – | – | Kd (hamster Abcb1a Pgp [3]): 0.98 µM
O[C@@H](COc1cccc2ncccc12)CN1CCN([C@@H]2c3ccccc3[C@@H]3[C@H](c4ccccc42)C3(F)F)CC1 [Zosuquidar] | – | – | – | – | IC50 (hamster Abcb1a Pgp [2]; [6]): 0.59 µM; Kd (hamster Abcb1a Pgp [3]; fluorescence quenching of purified Pgp in 2 mM CHAPS): 0.055 µM
C/C=C/C[C@@H](C)C(=O)[C@H]1C(=O)N[C@@H](C(C)C)C(=O)N(C)CC(=O)N(C)[C@@H](CC(C)C)C(=O)N[C@@H](C(C)C)C(=O)N(C)[C@@H](CC(C)C)C(=O)N[C@@H](C)C(=O)N[C@H](C)C(=O)N(C)[C@@H](CC(C)C)C(=O)N(C)[C@@H](CC(C)C)C(=O)N(C)[C@@H](C(C)C)C(=O)N1C [Valspodar] | – | 0.25 µM | – | – | Kd (hamster Abcb1a Pgp [3]): 0.08 µM
CC(=O)[C@H]1CC[C@H]2[C@@H]3CCC4=CC(=O)CC[C@]4(C)[C@H]3CC[C@]12C [Progesterone] | – | 3.7 µM | – | – | –
COC(=O)C1=C(C)NC(C)=C(C(=O)OC(C)C)C1c1cccc2nonc12 (centres unmarked) [Isradipine] | 6.6 µM | 6.6 µM | 161.5 µM | 0.02 µM | IC50 (human MDR1 Pgp): 29 µM
C[C@H]1O[C@@H](O[C@H]2[C@@H](O)C[C@H](O[C@H]3[C@@H](O)C[C@H](O[C@H]4CC[C@@]5(C)[C@H](CC[C@@H]6[C@@H]5C[C@@H](O)[C@]5(C)[C@@H](C7=CC(=O)OC7)CC[C@]65O)C4)O[C@@H]3C)O[C@@H]2C)C[C@H](O)[C@@H]1O [Digoxin] | – | 80 µM | – | – | –
COc1ccc2c(c1)c(CC(=O)O)c(C)n2C(=O)c1ccc(Cl)cc1 [Indomethacin] | – | 51 µM | – | – | –
CCc1oc2ccccc2c1C(=O)c1cc(Br)c(O)c(Br)c1 [Benzbromarone] | – | – | – | – | IC50 (hamster Abcb1a Pgp [2]): 44 µM
CCCN(CCC)S(=O)(=O)c1ccc(C(=O)O)cc1 [Probenecid] | – | 240 µM | – | – | –
COc1ccc2c3c([nH]c2c1)[C@H](CC(C)C)N1C(=O)[C@H](CCC(=O)OC(C)(C)C)NC(=O)[C@@H]1C3 [Ko143] | – | – | – | – | IC50 (hamster Abcb1a Pgp [2]; [6]): 7.5 µM
COc1cc2c(cc1OC)CN(CCc1ccc(NC(=O)c3cc(OC)c(OC)cc3NC(=O)c3cnc4ccccc4c3)cc1)CC2 [Tariquidar] | – | – | – | – | IC50 (hamster Abcb1a Pgp [2]): 0.021 µM
